Square brackets hold non-standard residues; d marks the D form. Peptide text beside a SMILES is read from it.
What was measured:
[1] = Pharmacokinetics after intravenous injection 4 h after tMCAo (LC/MS/MS); assay type: in vivo; settings: mouse, i.v. 2 mg/ml, 10 ml/kg in 0.45% saline
Method: MHP1-Ac or MHP1-AcN (2 mg/ml, 10 ml/kg in 0.45% saline) was administered intravenously 4 hrs after tMCAo and mouse plasma was collected at 5 min, 10 min, 20 min, 30 min, 45 min, 1 h, and 2 h after injection. Mouse plasma (C57BL6J, 10 µL) and water/phosphoric acid (24:1, v/v) (Solution B, 500 µL) were mixed together to prepare the plasma samples. The samples (510 µL) were then analyzed using LC/MS/MS to determine MHP1-Ac or MHP1-AcN in plasma. Mouse brain was weighed and mixed with a 4-fold volume of solution B and the mixture was homogenized to prepare the brain samples. The specific gravity of solution B was assumed to be 1. The brain samples (10 µL) were analyzed using LC/MS/MS to determine MHP1-Ac or MHP1-AcN in brain. MHP1-Ac and MHP1-AcN, and MHP1-N (internal standard), in the plasma samples and brain samples, were extracted using Oasis HLB μElution Plate (Waters). Chromatographic analysis was performed on an InertSustain C18 (2.1 mm I.D. ×50 mm, 3 µm, GL Sciences) column using the mobile phase A, water/formic acid (1000:1, v/v), and the mobile phase B, acetonitrile/formic acid (1000:1, v/v).

[2] = Dissolution in water and sedimentation in 0.45% saline at 37 °C for 24 h; assay type: physicochemical
Method: Synthetic MHP1 (NH2-[…]-COOH), MHP1-DN1 (NH2-LMVYVV-DLys-[…]-COOH), MHP1-DN2 (NH2-LMV-DTyr-[…]-COOH), MHP1-DN3 (NH2-L-DMet-[…]-COOH), MHP1-DC (NH2-LMVYVVKTSIKIPSSHNL-DMet-KGGSTKNWSGN-COOH), MHP1-Ac (Ac-[…]-COOH), MHP1-AcN (Ac-[…]-HN2), or MHP1-N (NH2-[…]-NH2) was purchased from ILS, Inc (Ibaraki, Tsukuba, Japan), dissolved in 1 or 2 mg/ml ddH2O and stored at 4 °C until use (Table 1).

LPS-stimulated MG6 cells [3] = test: LDH assay in LPS-stimulated MG6 cells; assay type: cell-based, mouse
LPS-stimulated MG6 cells [4] = test: Anti-inflammatory effect in LPS-stimulated MG6 cells (TNF-α / IL-6 ELISA); assay type: cell-based, mouse; settings: LPS-stimulated MG6 cells; for inhibition of IL-6 expression compared with MHP1 / inhibition of TNF-α expression compared with MHP1: medium harvested 24 h after stimulation; for effect on expression of TNF-α: vs LPS-stimulated cells without treatment
Method: MG6 cells were obtained from RIKEN BRC (Tsukuba, Japan)[25],[26]. The MG6 cells were maintained in DMEM (Nakarai, Kyoto, Japan) supplemented with 10% FBS (Thermo Fisher Scientific, Waltham, MA, USA), 10 μg/ml insulin (Sigma-Aldrich, St. Louis, MO, USA) and 100 μM 2-mercaptoethanol (Sigma-Aldrich). These cells (1 × 10^5 cells) were plated in 96-well plastic culture dishes. After overnight incubation, the medium was replaced with DMEM supplemented with 4% FBS. LPS (Escherichia coli 0111: B4; Sigma-Aldrich, St. Louis, MO, USA) and MHP1 or modified MHP1 was added to the medium, which was then harvested at 24 h after stimulation. In the experiment checking the stability at 26 or 37 °C, MHP1-Ac or MHP1-AcN was incubated at 26 or 37 °C for 24 h before adding to the medium.
The concentrations of TNF-α and IL-6 were measured using commercially available ELISA kits: TNF-α, Quantikine Mouse TNF-α ELISA Kit (R&D systems); IL-6, Quantikine Mouse IL-6 ELISA Kit (R&D systems).

Mouse (CD-1(ICR)) serum = settings: 37 °C, up to 60 min

Row | Compound | inhibition of IL-6 expression compared with MHP1 (LPS-stimulated MG6 cells [4]; ELISA) | inhibition of TNF-α expression compared with MHP1 (LPS-stimulated MG6 cells [4]; ELISA) | anti-inflammatory effects (LPS-stimulated MG6 cells [4]; 24 h, ELISA) | effect on expression of TNF-α (LPS-stimulated MG6 cells [4]; 24 h, ELISA) | also measured
1 | CC[C@H](C)[C@H](NC(=O)[C@H](CO)NC(=O)[C@@H](NC(=O)[C@H](CCCCN)NC(=O)[C@@H](NC(=O)[C@@H](NC(=O)[C@H](Cc1ccc(O)cc1)NC(=O)[C@@H](NC(=O)[C@H](CCSC)NC(=O)[C@H](CC(C)C)NC(C)=O)C(C)C)C(C)C)C(C)C)[C@@H](C)O)C(=O)N[C@@H](CCCCN)C(=O)N[C@H](C(=O)N1CCC[C@H]1C(=O)N[C@@H](CO)C(=O)N[C@@H](CO)C(=O)N[C@@H](Cc1c[nH]cn1)C(=O)N[C@@H](CC(N)=O)C(=O)N[C@@H](CC(C)C)C(=O)N[C@@H](CCSC)C(=O)N[C@@H](CCCCN)C(=O)NCC(=O)NCC(=O)N[C@@H](CO)C(=O)N[C@H](C(=O)N[C@@H](CCCCN)C(=O)N[C@@H](CC(N)=O)C(=O)N[C@@H](Cc1c[nH]c2ccccc12)C(=O)N[C@@H](CO)C(=O)NCC(=O)N[C@@H](CC(N)=O)C(=O)O)[C@@H](C)O)[C@@H](C)CC [MHP1-Ac] (Ac-LMVYVVKTSIKIPSSHNLMKGGSTKNWSGN-OH) | more effective than MHP1 | more effective than MHP1 | – | – | time post-injection until which peptide was detected in the brain ([1]; brain homogenate, last sampling 2 h): 2 h; time within which peptide was degraded in plasma ([1]; plasma): ≤ 20 min; sedimentation after incubation in 0.45% saline ([2]; 0.45% saline, 37 °C, 24 h, visual, concentration not given): experienced sedimentation; dissolution in water ([2]; water): easily dissolved in water; cytotoxicity (LDH assay) (LPS-stimulated MG6 cells [3]): did not increase cytotoxicity; anti-inflammatory effects at 1 µg/ml (LPS-stimulated MG6 cells [4]; 1 µg/ml peptide): not seen; dose dependency of anti-inflammatory effects (LPS-stimulated MG6 cells [4]; 24 h, ELISA): Dose-dependent anti-inflammatory effects were observed
2 | CC[C@H](C)[C@H](NC(=O)[C@H](CO)NC(=O)[C@@H](NC(=O)[C@H](CCCCN)NC(=O)[C@@H](NC(=O)[C@@H](NC(=O)[C@H](Cc1ccc(O)cc1)NC(=O)[C@@H](NC(=O)[C@H](CCSC)NC(=O)[C@@H](N)CC(C)C)C(C)C)C(C)C)C(C)C)[C@@H](C)O)C(=O)N[C@@H](CCCCN)C(=O)N[C@H](C(=O)N1CCC[C@H]1C(=O)N[C@@H](CO)C(=O)N[C@@H](CO)C(=O)N[C@@H](Cc1c[nH]cn1)C(=O)N[C@@H](CC(N)=O)C(=O)N[C@@H](CC(C)C)C(=O)N[C@H](CCSC)C(=O)N[C@@H](CCCCN)C(=O)NCC(=O)NCC(=O)N[C@@H](CO)C(=O)N[C@H](C(=O)N[C@@H](CCCCN)C(=O)N[C@@H](CC(N)=O)C(=O)N[C@@H](Cc1c[nH]c2ccccc12)C(=O)N[C@@H](CO)C(=O)NCC(=O)N[C@@H](CC(N)=O)C(=O)O)[C@@H](C)O)[C@@H](C)CC [MHP1-DC] (H-LMVYVVKTSIKIPSSHNL[dM]KGGSTKNWSGN-OH) | not replicated | more effective than MHP1 | – | – | –
3 | CC[C@H](C)[C@H](NC(=O)[C@H](CO)NC(=O)[C@@H](NC(=O)[C@@H](CCCCN)NC(=O)[C@@H](NC(=O)[C@@H](NC(=O)[C@H](Cc1ccc(O)cc1)NC(=O)[C@@H](NC(=O)[C@H](CCSC)NC(=O)[C@@H](N)CC(C)C)C(C)C)C(C)C)C(C)C)[C@@H](C)O)C(=O)N[C@@H](CCCCN)C(=O)N[C@H](C(=O)N1CCC[C@H]1C(=O)N[C@@H](CO)C(=O)N[C@@H](CO)C(=O)N[C@@H](Cc1c[nH]cn1)C(=O)N[C@@H](CC(N)=O)C(=O)N[C@@H](CC(C)C)C(=O)N[C@@H](CCSC)C(=O)N[C@@H](CCCCN)C(=O)NCC(=O)NCC(=O)N[C@@H](CO)C(=O)N[C@H](C(=O)N[C@@H](CCCCN)C(=O)N[C@@H](CC(N)=O)C(=O)N[C@@H](Cc1c[nH]c2ccccc12)C(=O)N[C@@H](CO)C(=O)NCC(=O)N[C@@H](CC(N)=O)C(=O)O)[C@@H](C)O)[C@@H](C)CC [MHP1-DN1] (H-LMVYVV[dK]TSIKIPSSHNLMKGGSTKNWSGN-OH) | – | – | lacked anti-inflammatory effects | augmented the expression of TNF-α | –
4 | CC[C@H](C)[C@H](NC(=O)[C@H](CO)NC(=O)[C@@H](NC(=O)[C@H](CCCCN)NC(=O)[C@@H](NC(=O)[C@@H](NC(=O)[C@@H](Cc1ccc(O)cc1)NC(=O)[C@@H](NC(=O)[C@H](CCSC)NC(=O)[C@@H](N)CC(C)C)C(C)C)C(C)C)C(C)C)[C@@H](C)O)C(=O)N[C@@H](CCCCN)C(=O)N[C@H](C(=O)N1CCC[C@H]1C(=O)N[C@@H](CO)C(=O)N[C@@H](CO)C(=O)N[C@@H](Cc1c[nH]cn1)C(=O)N[C@@H](CC(N)=O)C(=O)N[C@@H](CC(C)C)C(=O)N[C@@H](CCSC)C(=O)N[C@@H](CCCCN)C(=O)NCC(=O)NCC(=O)N[C@@H](CO)C(=O)N[C@H](C(=O)N[C@@H](CCCCN)C(=O)N[C@@H](CC(N)=O)C(=O)N[C@@H](Cc1c[nH]c2ccccc12)C(=O)N[C@@H](CO)C(=O)NCC(=O)N[C@@H](CC(N)=O)C(=O)O)[C@@H](C)O)[C@@H](C)CC [MHP1-DN2] (H-LMV[dY]VVKTSIKIPSSHNLMKGGSTKNWSGN-OH) | – | – | lacked anti-inflammatory effects | augmented the expression of TNF-α | –
5 | CC[C@H](C)[C@H](NC(=O)[C@H](CO)NC(=O)[C@@H](NC(=O)[C@H](CCCCN)NC(=O)[C@@H](NC(=O)[C@@H](NC(=O)[C@H](Cc1ccc(O)cc1)NC(=O)[C@@H](NC(=O)[C@@H](CCSC)NC(=O)[C@@H](N)CC(C)C)C(C)C)C(C)C)C(C)C)[C@@H](C)O)C(=O)N[C@@H](CCCCN)C(=O)N[C@H](C(=O)N1CCC[C@H]1C(=O)N[C@@H](CO)C(=O)N[C@@H](CO)C(=O)N[C@@H](Cc1c[nH]cn1)C(=O)N[C@@H](CC(N)=O)C(=O)N[C@@H](CC(C)C)C(=O)N[C@@H](CCSC)C(=O)N[C@@H](CCCCN)C(=O)NCC(=O)NCC(=O)N[C@@H](CO)C(=O)N[C@H](C(=O)N[C@@H](CCCCN)C(=O)N[C@@H](CC(N)=O)C(=O)N[C@@H](Cc1c[nH]c2ccccc12)C(=O)N[C@@H](CO)C(=O)NCC(=O)N[C@@H](CC(N)=O)C(=O)O)[C@@H](C)O)[C@@H](C)CC [MHP1-DN3] (H-L[dM]VYVVKTSIKIPSSHNLMKGGSTKNWSGN-OH) | – | – | lacked anti-inflammatory effects | no influence | –
6 | CC[C@H](C)[C@H](NC(=O)[C@H](CO)NC(=O)[C@@H](NC(=O)[C@H](CCCCN)NC(=O)[C@@H](NC(=O)[C@@H](NC(=O)[C@H](Cc1ccc(O)cc1)NC(=O)[C@@H](NC(=O)[C@H](CCSC)NC(=O)[C@@H](N)CC(C)C)C(C)C)C(C)C)C(C)C)[C@@H](C)O)C(=O)N[C@@H](CCCCN)C(=O)N[C@H](C(=O)N1CCC[C@H]1C(=O)N[C@@H](CO)C(=O)N[C@@H](CO)C(=O)N[C@@H](Cc1c[nH]cn1)C(=O)N[C@@H](CC(N)=O)C(=O)N[C@@H](CC(C)C)C(=O)N[C@@H](CCSC)C(=O)N[C@@H](CCCCN)C(=O)NCC(=O)NCC(=O)N[C@@H](CO)C(=O)N[C@H](C(=O)N[C@@H](CCCCN)C(=O)N[C@@H](CC(N)=O)C(=O)N[C@@H](Cc1c[nH]c2ccccc12)C(=O)N[C@@H](CO)C(=O)NCC(=O)N[C@@H](CC(N)=O)C(N)=O)[C@@H](C)O)[C@@H](C)CC [MHP1-N] (H-LMVYVVKTSIKIPSSHNLMKGGSTKNWSGN-NH2) | not replicated | more effective than MHP1 | – | – | –
7 | LMVYVVKTSIKIPSSHNLMKGGSTKNWSGN | – | – | – | – | cleaved bond (Mouse (CD-1(ICR)) serum): L-M2 and M2-V and V-Y4 and Y4-V, major and K7-T, major and Met19-K; fragment found (Mouse (CD-1(ICR)) serum): LMVYVVKTSIKIPSSHNLMKGGSTKNWSGN-Oxygen

Reference: PMC6290023 (Scientific Reports, 2018)
